Molecular target: Methylcytosine dioxygenase TET2 (Homo sapiens) (UniProt Q6N021)
Assay: Binding affinity to TET2 (unknown origin) assessed as binding constant

| Compound | Kb |
| --- | --- |
| O=C1O[C@H]([C@H](O)CO)C(O)=C1O | 8.7 10^3/M |
| O=C1O[C@H]([C@@H](O)CO)C(O)=C1O | 8.7 10^3/M |

— ChEMBL document CHEMBL6096735, “Exploring the Ascorbate Requirement of the 2-Oxoglutarate-Dependent Dioxygenases” (J Med Chem, 2025)
